Measured values reported in patent US7297501B2, “Method and devices for running reactions on a target plate for MALDI mass spectrometry” (University of Pennsylvania, priority 2001, dated 2007).
*: point of attachment. AMC = Cc1cc(=O)oc2cc(N*)ccc12; Cbz = O=C(OCc1ccccc1)*

Tests used:
[1] = target: T1, thrombin (Homo sapiens, UniProt P00734); experiment: Label-free nanoliter HTS reaction on MALDI target: thrombin release of fibrinopeptides A and B from fibrinogen, MALDI MS detection; format: biochemical; conditions: benzamidine in the nanoliter reaction, FIG. 26B
Procedure: The glycerol in the reaction was then removed, and MALDI matrix was deposited to result in a thin film suitable (FIG. 26A) for MS detection of FPA/FPB.
A 8×12 array of reactions were printed using an OmniGrid microarrayer containing varying concentrations of fibrinogen and a fibrinopeptide MS satandard. Certain reactions contained 1 mM benzamidine. The array was activated with thrombin and incubated under humidity (top row, A), the glycerol was removed (middle row, A), and then coated with MALDI matrix (bottom row, A). […] Conditions of the MALDI MS were: Voyager—DE PRO (sinapinic acid matrix), Glu1-Fibrinopeptide B (1 ug/ml) control, Reflector Mode, Positive Polarity, 1000-2000 Da Acquisition Range, 20000 V Accelerating voltage, 2033 laser. intensity (20.0 Hz; 100/spectrum), Extraction delay time: 150 nsec, Grid voltage: 75%, Guide wire voltage: 0.002%.

[2] = target: plasmin (Homo sapiens, UniProt P00747); experiment: Microarray assay: deposition of pure plasmin onto fluorogenic substrate array; format: biochemical; conditions: pure plasmin (1 μM) deposited on the array
Sequence of plasmin (Homo sapiens, UniProt P00747) (P00747 581-810 limits assumed, species assumed): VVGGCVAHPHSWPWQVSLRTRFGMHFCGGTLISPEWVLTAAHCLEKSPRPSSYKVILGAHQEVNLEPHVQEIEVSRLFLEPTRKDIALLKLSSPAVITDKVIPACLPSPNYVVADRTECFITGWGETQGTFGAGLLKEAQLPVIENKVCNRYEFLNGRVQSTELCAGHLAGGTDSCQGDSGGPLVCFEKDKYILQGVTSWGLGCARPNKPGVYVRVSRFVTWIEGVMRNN
Sequence of plasmin (Homo sapiens, UniProt P00747) (P00747 97-580 partner limits assumed, species assumed): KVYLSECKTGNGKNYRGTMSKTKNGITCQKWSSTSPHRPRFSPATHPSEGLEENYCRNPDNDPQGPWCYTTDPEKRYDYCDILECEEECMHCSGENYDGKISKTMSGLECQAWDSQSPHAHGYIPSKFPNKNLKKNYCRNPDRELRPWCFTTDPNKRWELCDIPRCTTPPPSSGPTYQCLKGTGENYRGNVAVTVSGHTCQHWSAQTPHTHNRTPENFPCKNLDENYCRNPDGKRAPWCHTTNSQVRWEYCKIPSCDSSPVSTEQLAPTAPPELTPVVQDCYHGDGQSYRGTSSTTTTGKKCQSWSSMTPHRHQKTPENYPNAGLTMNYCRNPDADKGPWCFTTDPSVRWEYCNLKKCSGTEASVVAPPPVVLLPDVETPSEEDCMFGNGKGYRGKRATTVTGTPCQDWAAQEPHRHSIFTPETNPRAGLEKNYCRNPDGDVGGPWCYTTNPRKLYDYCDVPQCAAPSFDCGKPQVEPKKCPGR

[3] = system: plasmin; conditions: Morita, 1977; cited from earlier work
[4] = target: T1, thrombin; experiment: Microarray assay: aerosol deposition of thrombin onto fluorogenic substrates in DMSO/glycerol; format: biochemical; conditions: after spray application of thrombin
Procedure: Well characterized for over 30 years, serine proteases of the coagulation pathway in plasma were selected as a system in which to monitor the delivery of complex enzyme fluids to the microassay. Fluorogenic substrates in DMSO/glycerol were assayed to a glass slide.
After spray application, thrombin caused a 65-fold increase in fluorescence activity after conversion of the boc-VPR-MCA substrate. […] Aerosol deposition of pure tPA (10 μM) to a sensing array caused significant cleavage of the tPA, thrombin and Xa substrates, resulting in fluorescence that was 18- to 20-fold above background.

## N=C(N)c1ccccc1 [Benzamidine]
[1]
  inhibition of thrombin-mediated release of fibrinopeptides A and B (FPA/FPB): completely inhibited the reaction

## boc-VLK-MCA
[2]
  signal above background: 25 fold

## Cbz-Phe-Arg-{AMC}
[3]
  reported plasmin activity on substrate: activity

## boc-VPR-MCA
[4]
  increase in fluorescence activity after conversion of the substrate: 65 fold
[3]
  reported plasmin activity on substrate: activity
